Laboratory results taken from patent publication US20170369414A1, “O-Quinone Compounds as Agents Neutralising Nitric Oxide” (Institut des Substances Végétales, priority 2015, published 2017).

Assay: Method for evaluating the neutralization of nitric oxide (amperometric probe, real time)
Conditions: phosphate buffer pH 7.4, 25° C., between T1 and T2=T1+30 s, corrected for solvent control
Method: For this, the nitric oxide is prepared in a separated container by achieving reduction of sodium nitrite with ferrous sulfate and carry away with a nitrogen gas stream into another container containing the product to be tested in solution in a buffer. In this solution, is placed an amperometric probe which measures in real time the current produced by the presence of nitric oxide in solution.
Nitric oxide is prepared extemporaneously in a container A, obturated with a flexible polymeric plug through which pass an entering tubing and an exiting tubing, with an inner diameter comprised between 50 μm and 300 μm, but particularly of 100 μm (cf. FIG. 1), with a volume comprised between 10 ml and 100 ml, but particularly of 30 ml, by adding a volume comprised between 0.1 and 2 ml, but particularly of 0.5 ml of an aqueous solution of sodium nitrite (NaNO2, ref. Sigma-Aldrich 237213) at a concentration comprised between 0.10% and 2.00% but particularly of 0.70%, at a volume comprised between 5 ml and 80 ml of the following aqueous solution:
The container B in which is measured the nitric oxide is a container opaque to light, with a double jacket allowing circulation of water maintaining the temperature at 25° C., obturated with a plug through which pass the tubing stemming from the container A and an exhaust tubing (cf. FIG. 1) with a volume comprised between 10 ml and 100 ml, preferably 30 ml which receives a volume comprised between 5 ml and 80 ml, preferably 20 ml, of an aqueous solution of phosphate buffer at pH 7.4.
Once they are mixed, the solutions are stirred for the whole period of the measurement with a magnetic stirrer, in container A and in container B.
Nitrogen gas is admitted at a flow rate comprised between 20 ml/min and 120 ml/min, preferably 80 ml/min in the bottom of the container A. The nitrogen thereby carries away the nitric oxide through the exiting tubing of container A as far as into container B where it is measured with a device provided for this purpose equipped with an amperometric probe provided with a specific membrane (apparatus of ref. TBR 1025 from World Precision Instruments, probe ISO-NOP). The probe thereby delivers a variable current between 10 and 1,000 nA proportional to the concentration of nitric oxide in the tested solution, of the order of magnitude of μM. The electric current produced by the probe under the influence of nitric oxide is recorded with a suitable device.
Before any measurement, the probe is calibrated by measuring the current produced by releasing known increasing amounts of nitric oxide. It is thus checked that there exists a linear relationship between the electric current produced by the probe and the molar concentration of nitric oxide and the correspondence between this electric current and the molar concentration of nitric oxide is determined. For this, 20 ml of the following aqueous solution is placed in the container B disconnected from the container A during the calibration period:
50 μl, 100 μl, 150 μl and 200 μl of a solution of sodium nitrite (NaNO2, ref. Sigma-Aldrich 237213) are then successively added to a concentration of 360 μM.
The curve giving the correspondence between the nitric oxide concentration in the reaction medium and the electric intensity produced by the probe expressed in nA is plotted for each addition of the nitric oxide solution.
During a typical measurement, 20 ml of the ferrous sulfate solution are placed in the container A and 20 ml of phosphate buffer at pH 7.4 are placed in the container B. In the container A, nitrogen gas is admitted for 10 mins, which passes in transit towards the container B, in order to remove the dissolved oxygen present in the solutions of the containers A and B. After these 10 mins, the recording of the measurement of nitric oxide is launched.
At time T0, the sodium nitrite solution is injected into the container A through the flexible polymeric plug by means of a syringe equipped with a needle.

Molecule	E, neutralization effect of nitric oxide (nitric oxide neutralized per second and per mg of product)
O=C(O)/C=C/c1ccc(O)c(O)c1 [Caffeic acid]	0.957 µM/s/mg
O=c1cc(-c2ccc(O)c(O)c2)oc2cc(O)cc(O)c12 [Luteolin]	0.174 µM/s/mg
O.O.O=c1c(O)c(-c2ccc(O)c(O)c2)oc2cc(O)cc(O)c12 [Quercetin, Quercetin dihydrate]	0.087 µM/s/mg
O=C(/C=C/c1ccc(O)c(O)c1)O[C@H](Cc1ccc(O)c(O)c1)C(=O)O [Rosmarinic acid]	0.043 µM/s/mg
C[C@@H]1O[C@@H](O[C@@H]2[C@@H](O)[C@H](OCCc3ccc(O)c(O)c3)O[C@H](CO)[C@H]2OC(=O)/C=C/c2ccc(O)c(O)c2)[C@H](O)[C@H](O)[C@H]1O [Verbascoside]	0.058 µM/s/mg
O=C(O)/C=C\C1=CC(=O)C(=O)C=C1 [caffeoyl-quinone, ortho-quinone of caffeic acid]	24.36 µM/s/mg
O=C(O)/C=C/c1ccc(O)cc1 [p-coumaric acid]	0.13 µM/s/mg
(+) catechin hydrate	0.13 µM/s/mg
